# Assays:
# HLA-DRα mRNA = HLA-DRα mRNA by standard PCR and real-time PCR in human cell lines JAR and SK-N-MC; format: cell-based; details: JAR; for fold increase in HLA-DRα (MHC class II) mRNA over the control: real time quantitative RT-PCR, 100 nM TSA, IFNγ 100 U/ml or combination for 12 hours, sodium butyrate (FIG. 2)
# Description: (§1) To determine the effect of DAIs on HLA-DRα mRNA, cytoplasmic RNA was isolated from untreated and treated human trophoblast cell line JAR using standard techniques (RNeasy System from Qiagen). Standard PCR was performed using primers for DR and CIITA (Murphy et al., 1998, Reprod Dev., Chin et al., 1994, Immunity 1:687-697). Other primers used included human and mouse GAPDH (Clontech) and forward primer 5′-[…]-3′ (SEQ ID NO:25) and reverse primer 5′-[…]-3′ (SEQ ID NO:26) for mouse CIITA. PCR products were amplified with GOLD Taq for 10 min at 95° C., then 95° C. for 30 sec, 60° C. for 60 sec (25-45 cycles), then an extension at 60° C. for 10 min.
# Oligonucleotide primers and TaqMan 5′-6-FAM and 3′-TAMRA-labeled probes were synthesized in the RPCI Biopolymer Facility. Primer and probe sequences are listed under Sequence Listing and also in FIG. 9. Sequences were designed using standard software (PrimerExpress software, PE Biosystems) except for human GAPDH.
# Realtime PCR reactions contained TaqMan Universal PCR Master Mix (PE Biosystems), primers at 300 nM, and probes at optimal concentrations (150-225 nM depending on gene). Reactions were carried out on an ABI PRISM 7700 Sequence Detection System (PE Biosystems). Cycling conditions were 50° C. for 2 min, 95° C. for 10 min, then 60 cycles of 95° C. for 15 sec, 60° C. for 1 min. PCR samples were run in triplicate. The detection system and quantitative PCR was carried out as described by Williamson et al. (1995, Genet Res. 65:83-93). The threshold cycle number CT corresponded to the cycle number, at which the fluorescent emission reaches 10 standard deviations above the mean fluorescent emission, measured during the early ‘baseline’ cycles of the PCR. The CT values for triplicates were averaged and normalized to GAPDH levels. […] Assuming reverse transcription efficiencies were approximately the same for each sample, relative amounts of mRNA using the comparative CT method. Fold changes in mRNA levels were calculated as 2^x where x=the difference between normalized CT values of the control and experimental samples.
# To evaluate the effects of DAIs on human cells, the human trophoblast cell line was treated with 100 nM Trichostatin A (TSA), IFNγ (100 U/ml) or a combination of TSA and IFNγ for 12 hours. RNA was isolated and real time quantitative RT-PCR was carried out. The fold increase in mRNA over the control was calculated.
# CD40 mRNA = CD40 mRNA by real-time PCR in SK-N-MC; format: cell-based, human; details: MC cells, at 24 hours
# IAα mRNA = assay: MHC class II (IAα) mRNA by RT-PCR and real-time PCR in mouse tumor models; format: cell-based; details: for fold increase in Ia (Iα): real-time PCR; for class II mRNA activation: titration with different concentrations of TSA for 12 hours, RT-PCR and real-time PCR
# Description: as §1
# In order to obtain more quantitative information on fold changes in DR and CIITA after treatment with the deacetylase inhibitors, a real time fluorescence technique capable of quantitating low copy numbers of transcripts was carried out as follows. Oligonucleotide primers and TaqMan 5′-6-FAM and 3′-TAMRA-labeled probes were synthesized in the RPCI Biopolymer Facility. Primer and probe sequences are listed under Sequence Listing and also in FIG. 9. Sequences were designed using standard software (PrimerExpress software, PE Biosystems) except for human GAPDH.
# Realtime PCR reactions contained TaqMan Universal PCR Master Mix (PE Biosystems), primers at 300 nM, and probes at optimal concentrations (150-225 nM depending on gene). Reactions were carried out on an ABI PRISM 7700 Sequence Detection System (PE Biosystems). Cycling conditions were 50° C. for 2 min, 95° C. for 10 min, then 60 cycles of 95° C. for 15 sec, 60° C. for 1 min. PCR samples were run in triplicate. The detection system and quantitative PCR was carried out as described by Williamson et al. (1995, Genet Res. 65:83-93). The threshold cycle number CT corresponded to the cycle number, at which the fluorescent emission reaches 10 standard deviations above the mean fluorescent emission, measured during the early ‘baseline’ cycles of the PCR. The CT values for triplicates were averaged and normalized to GAPDH levels. […] In such cases, in order to calculate a minimum fold change for other samples in the same group, the CT value was arbitrarily set at 40. […] Assuming reverse transcription efficiencies were approximately the same for each sample, relative amounts of mRNA using the comparative CT method. Fold changes in mRNA levels were calculated as 2^x where x=the difference between normalized CT values of the control and experimental samples.
# To determine if the effect of DAIs on MHC class II was manifested in other tumors and in different species, the effect of TSA was tested on four commonly used mouse tumor models: the SaI fibrosarcoma, the Colon 26 adenocarcinoma, the J558 plasmacytoma and the P815 mastocytoma. TSA induced class II in all four mouse tumors examined, while the effects of IFNγ were variable (FIG. 4). Data presented for each cell line represents optimal incubation time and concentration of TSA and is compared with 100 U/ml of IFNγ at the same time point. Numbers over bars represents fold changes. […] Colon 26 and J558 that differed strikingly in their reactivity to IFNγ were selected for further evaluation. RT-PCR and real time PCR was used to examine induction of CIITA and IAα by TSA and IFNγ. A20, a constitutively positive B cell line was used as a positive control. The results are shown in FIGS. 5A-D. The numbers over bars represent fold changes. […] Since the classical IFNγ inducible genes IRF-1 and GBP as well as MHC class I mRNA were not induced by IFNγ in J558 (data not shown), this cell line may have a signaling defect in the IFNγ pathway. Unexpectedly however, and unlike either the MC or Colon 26 cells, TSA induced both CIITA (102-fold) and Iα (537-fold) in J558 as shown in FIGS. 5B and 5D.
compound,measurement,setting,value
"CC(/C=C/C(=O)NO)=C\[C@@H](C)C(=O)c1ccc(N(C)C)cc1 [TSA, Trichostatin A]",fold increase in HLA-DRα (MHC class II) mRNA over the control,HLA-DRα mRNA,15 fold
same,levels of mRNA for DR,"HLA-DRα mRNA; standard PCR, 100 nM or 250 nM TSA or 1 mM sodium butyrate",substantial increase
same,CD40 mRNA fold increase,CD40 mRNA,12 fold
same,fold increase in Ia (Iα),IAα mRNA; Colon 26,74 fold
same,Iα (class II) fold induction,"IAα mRNA; J558, RT-PCR and real-time PCR (FIGS. 5B and 5D)",537 fold
same,class II mRNA activation,IAα mRNA; J558,induced
same,induction of class II mRNA,"IAα mRNA; all four mouse tumors (SaI, Colon 26, J558, P815), optimal incubation time and concentration of TSA",induced
"IFNγ: gamma-interferon, cytokine used as comparator at 100 U/ml",fold increase in HLA-DRα (MHC class II) mRNA over the control,HLA-DRα mRNA,did not induce
same,CD40 mRNA fold increase,CD40 mRNA,5 fold
same,fold increase in Ia (Iα),IAα mRNA; Colon 26,58 fold
same,expression of class II,"IAα mRNA; Colon 26, standard RT-PCR at 35 cycles",induced
same,induction of class II mRNA,"IAα mRNA; J558, 100 U/ml IFNγ (FIG. 4)",failed to induce
same,class II mRNA activation,IAα mRNA; J558,failed to activate
same,class II mRNA,"IAα mRNA; P815, 100 U/ml IFNγ (FIG. 4)",only weakly enhanced
same,fold-increases in class II mRNA compared with TSA,"IAα mRNA; SaI and Colon 26, 100 U/ml IFNγ",nearly equivalent fold-increases

# From patent US6518012B1, “Method for regulating the expression of MHC antigens and CD40 by inhibitors of histone deacetylation” (Health Research, Inc., priority 1999, dated 2003)
